According to ChEMBL document CHEMBL5291721, “A preclinical secondary pharmacology resource illuminates target-adverse drug reaction associations of marketed drugs” (Nat Commun, 2023):
Where “and” joins values, the source holds several entries; their conditions need not be identical. Equal values may be shown once.

Assays:
[1] = molecular target: Beta-2 adrenergic receptor (Homo sapiens, UniProt P07550); assay type: functional, cell-based
Histamine H3 receptor = Histamine H3 receptor (Homo sapiens, UniProt Q9Y5N1)
Melanocortin receptor 4 = Melanocortin receptor 4 (Homo sapiens, UniProt P32245)
Mu-type opioid receptor = Mu-type opioid receptor (Homo sapiens, UniProt P35372)
B2 bradykinin receptor = molecular target: T1, B2 bradykinin receptor (Homo sapiens, UniProt P30411)
T1 sequence (P30411 whole entry): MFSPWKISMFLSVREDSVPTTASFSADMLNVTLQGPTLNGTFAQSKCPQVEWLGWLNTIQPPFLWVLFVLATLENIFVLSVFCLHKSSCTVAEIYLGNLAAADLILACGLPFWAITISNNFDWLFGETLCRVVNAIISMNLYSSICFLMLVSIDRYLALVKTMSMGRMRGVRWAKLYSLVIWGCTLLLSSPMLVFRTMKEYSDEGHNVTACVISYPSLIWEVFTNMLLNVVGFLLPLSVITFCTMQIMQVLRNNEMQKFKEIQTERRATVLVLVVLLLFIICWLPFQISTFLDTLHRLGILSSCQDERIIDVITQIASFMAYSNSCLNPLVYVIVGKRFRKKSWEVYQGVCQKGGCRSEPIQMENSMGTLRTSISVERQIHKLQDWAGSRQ

[2] = molecular target: T2, Sodium-dependent serotonin transporter (Homo sapiens, UniProt P31645)
[3] = molecular target: T3, Amine oxidase [flavin-containing] A (Homo sapiens, UniProt P21397); assay type: functional
T3 sequence (P21397 whole entry): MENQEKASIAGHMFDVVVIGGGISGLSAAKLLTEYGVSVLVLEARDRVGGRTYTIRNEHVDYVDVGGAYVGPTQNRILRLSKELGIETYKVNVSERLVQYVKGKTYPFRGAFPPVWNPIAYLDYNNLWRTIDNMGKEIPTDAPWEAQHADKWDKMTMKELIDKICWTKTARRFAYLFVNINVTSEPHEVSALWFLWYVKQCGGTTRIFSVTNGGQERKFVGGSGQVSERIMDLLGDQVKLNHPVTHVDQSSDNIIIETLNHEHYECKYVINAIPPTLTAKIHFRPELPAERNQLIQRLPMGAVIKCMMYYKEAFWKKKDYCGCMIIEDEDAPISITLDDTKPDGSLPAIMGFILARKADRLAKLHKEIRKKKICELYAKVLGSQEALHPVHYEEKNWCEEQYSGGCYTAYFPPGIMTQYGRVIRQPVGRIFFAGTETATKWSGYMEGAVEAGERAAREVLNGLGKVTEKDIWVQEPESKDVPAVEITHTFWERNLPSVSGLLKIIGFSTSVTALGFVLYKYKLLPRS

[4] = molecular target: 5-hydroxytryptamine receptor 2B (Homo sapiens, UniProt P41595); assay type: functional, cell-based
[5] = molecular target: T2, Sodium-dependent serotonin transporter; remark: listed apart in the source
Adenosine receptor A3 = molecular target: T4, Adenosine receptor A3 (Homo sapiens, UniProt P0DMS8)
T4 sequence (P0DMS8 whole entry): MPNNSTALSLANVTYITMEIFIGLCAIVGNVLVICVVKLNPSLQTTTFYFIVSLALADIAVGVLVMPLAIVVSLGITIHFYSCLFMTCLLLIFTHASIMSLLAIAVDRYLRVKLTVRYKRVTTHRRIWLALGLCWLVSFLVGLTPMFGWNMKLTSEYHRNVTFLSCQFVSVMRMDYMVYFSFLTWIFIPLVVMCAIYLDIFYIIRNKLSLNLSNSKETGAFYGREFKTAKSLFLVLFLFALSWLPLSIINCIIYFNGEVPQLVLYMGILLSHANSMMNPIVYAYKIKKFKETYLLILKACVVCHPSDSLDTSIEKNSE

[6] = molecular target: T5, Muscarinic acetylcholine receptor M2 (Homo sapiens, UniProt P08172)
T5 sequence (P08172 whole entry): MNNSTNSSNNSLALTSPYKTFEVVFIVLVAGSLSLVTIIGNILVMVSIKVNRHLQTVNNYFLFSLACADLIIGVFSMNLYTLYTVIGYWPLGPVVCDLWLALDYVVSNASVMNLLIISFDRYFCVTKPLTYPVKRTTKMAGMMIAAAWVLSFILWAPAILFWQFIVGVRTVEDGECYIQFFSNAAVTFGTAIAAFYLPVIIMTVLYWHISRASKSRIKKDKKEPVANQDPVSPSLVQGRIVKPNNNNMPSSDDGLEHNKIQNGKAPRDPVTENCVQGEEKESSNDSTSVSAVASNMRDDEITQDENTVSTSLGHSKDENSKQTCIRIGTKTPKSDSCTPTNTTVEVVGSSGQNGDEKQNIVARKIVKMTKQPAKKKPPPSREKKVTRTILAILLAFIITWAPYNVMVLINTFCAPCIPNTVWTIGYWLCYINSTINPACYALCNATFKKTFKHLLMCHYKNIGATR

Estrogen receptor = molecular target: T6, Estrogen receptor (Homo sapiens, UniProt P03372)
T6 sequence (P03372 whole entry): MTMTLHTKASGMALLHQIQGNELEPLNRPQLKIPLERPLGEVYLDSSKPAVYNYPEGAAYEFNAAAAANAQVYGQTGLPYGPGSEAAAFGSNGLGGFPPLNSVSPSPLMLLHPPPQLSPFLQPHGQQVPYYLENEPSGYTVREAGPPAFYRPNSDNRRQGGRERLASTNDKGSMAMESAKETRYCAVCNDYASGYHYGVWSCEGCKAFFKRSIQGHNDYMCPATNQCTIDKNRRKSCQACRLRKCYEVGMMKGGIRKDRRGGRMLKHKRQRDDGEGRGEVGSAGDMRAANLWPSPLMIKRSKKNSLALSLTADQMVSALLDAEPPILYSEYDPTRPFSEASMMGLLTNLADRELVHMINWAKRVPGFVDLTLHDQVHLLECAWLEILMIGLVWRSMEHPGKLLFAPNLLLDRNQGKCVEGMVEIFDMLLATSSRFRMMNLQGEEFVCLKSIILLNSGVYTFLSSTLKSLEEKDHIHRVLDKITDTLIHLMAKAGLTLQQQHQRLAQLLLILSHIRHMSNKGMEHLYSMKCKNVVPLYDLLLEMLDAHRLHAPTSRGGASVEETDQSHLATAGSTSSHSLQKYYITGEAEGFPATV

[7] = molecular target: Sodium-dependent dopamine transporter (Homo sapiens, UniProt Q01959)
Note: assay procedure not described here.

Sequence of 5-hydroxytryptamine receptor 2B (P41595 whole entry): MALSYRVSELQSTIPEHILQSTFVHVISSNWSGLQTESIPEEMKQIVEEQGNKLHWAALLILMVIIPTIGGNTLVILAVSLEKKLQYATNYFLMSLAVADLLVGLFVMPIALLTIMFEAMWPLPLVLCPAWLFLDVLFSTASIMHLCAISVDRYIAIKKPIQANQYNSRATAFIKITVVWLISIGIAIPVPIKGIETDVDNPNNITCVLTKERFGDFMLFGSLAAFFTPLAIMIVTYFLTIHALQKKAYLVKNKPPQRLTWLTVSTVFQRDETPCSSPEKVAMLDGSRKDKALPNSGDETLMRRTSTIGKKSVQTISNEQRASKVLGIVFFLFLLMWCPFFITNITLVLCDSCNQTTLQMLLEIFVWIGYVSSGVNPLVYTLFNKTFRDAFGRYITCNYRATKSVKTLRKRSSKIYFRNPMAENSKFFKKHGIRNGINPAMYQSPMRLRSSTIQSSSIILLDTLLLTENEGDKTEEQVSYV
Sequence of Mu-type opioid receptor (P35372 whole entry): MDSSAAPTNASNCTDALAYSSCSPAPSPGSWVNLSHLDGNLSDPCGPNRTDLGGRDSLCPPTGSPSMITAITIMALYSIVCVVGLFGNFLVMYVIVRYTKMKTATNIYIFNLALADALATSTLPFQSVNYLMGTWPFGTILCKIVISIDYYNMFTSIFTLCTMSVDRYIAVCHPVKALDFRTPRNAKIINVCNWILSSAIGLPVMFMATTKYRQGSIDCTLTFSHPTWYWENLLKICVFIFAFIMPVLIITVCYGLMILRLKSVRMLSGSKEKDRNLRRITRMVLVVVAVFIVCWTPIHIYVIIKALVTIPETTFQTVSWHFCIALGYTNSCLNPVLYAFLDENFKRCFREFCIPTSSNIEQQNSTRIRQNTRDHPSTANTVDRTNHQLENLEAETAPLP
Sequence of Beta-2 adrenergic receptor (P07550 whole entry): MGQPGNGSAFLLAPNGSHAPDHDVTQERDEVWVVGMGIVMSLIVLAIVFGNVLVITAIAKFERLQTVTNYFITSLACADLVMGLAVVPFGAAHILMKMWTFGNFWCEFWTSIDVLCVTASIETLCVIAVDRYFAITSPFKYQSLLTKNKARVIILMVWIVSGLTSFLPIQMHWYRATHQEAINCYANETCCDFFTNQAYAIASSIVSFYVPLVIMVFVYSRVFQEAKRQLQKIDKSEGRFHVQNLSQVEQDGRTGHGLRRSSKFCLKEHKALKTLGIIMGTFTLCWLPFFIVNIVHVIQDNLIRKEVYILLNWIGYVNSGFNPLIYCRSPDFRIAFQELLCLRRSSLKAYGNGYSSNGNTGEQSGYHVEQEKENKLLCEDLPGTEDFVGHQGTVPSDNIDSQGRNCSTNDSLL
T2 sequence (P31645 whole entry): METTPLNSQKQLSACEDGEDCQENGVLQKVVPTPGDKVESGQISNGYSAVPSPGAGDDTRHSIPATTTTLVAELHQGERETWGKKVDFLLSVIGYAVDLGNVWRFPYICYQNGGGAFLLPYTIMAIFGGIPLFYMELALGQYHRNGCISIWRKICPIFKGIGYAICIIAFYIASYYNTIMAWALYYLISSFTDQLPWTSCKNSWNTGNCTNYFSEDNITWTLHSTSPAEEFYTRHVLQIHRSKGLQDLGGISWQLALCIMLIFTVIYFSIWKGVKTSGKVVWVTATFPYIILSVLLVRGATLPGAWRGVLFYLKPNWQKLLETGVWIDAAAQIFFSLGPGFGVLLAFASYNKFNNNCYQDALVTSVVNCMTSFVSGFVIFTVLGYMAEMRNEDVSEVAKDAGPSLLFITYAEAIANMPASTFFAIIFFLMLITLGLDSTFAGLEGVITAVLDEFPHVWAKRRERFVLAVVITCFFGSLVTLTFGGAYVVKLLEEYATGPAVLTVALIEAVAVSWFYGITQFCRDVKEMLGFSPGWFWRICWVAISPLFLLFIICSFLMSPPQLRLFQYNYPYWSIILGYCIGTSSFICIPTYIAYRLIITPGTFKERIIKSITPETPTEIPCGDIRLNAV
Sequence of Histamine H3 receptor (Q9Y5N1 whole entry): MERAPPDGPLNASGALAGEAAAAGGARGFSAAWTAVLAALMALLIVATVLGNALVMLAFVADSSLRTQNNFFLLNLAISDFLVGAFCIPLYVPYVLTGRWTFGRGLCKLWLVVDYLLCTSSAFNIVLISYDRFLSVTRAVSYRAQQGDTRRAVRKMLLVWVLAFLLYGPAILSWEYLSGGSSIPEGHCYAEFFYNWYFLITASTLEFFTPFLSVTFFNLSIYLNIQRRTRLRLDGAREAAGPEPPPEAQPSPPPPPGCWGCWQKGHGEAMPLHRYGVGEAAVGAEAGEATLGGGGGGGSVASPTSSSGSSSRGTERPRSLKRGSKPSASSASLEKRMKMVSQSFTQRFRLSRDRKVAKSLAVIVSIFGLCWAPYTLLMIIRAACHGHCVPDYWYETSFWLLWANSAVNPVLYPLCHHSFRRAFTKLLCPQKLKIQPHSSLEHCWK
Sequence of Melanocortin receptor 4 (P32245 whole entry): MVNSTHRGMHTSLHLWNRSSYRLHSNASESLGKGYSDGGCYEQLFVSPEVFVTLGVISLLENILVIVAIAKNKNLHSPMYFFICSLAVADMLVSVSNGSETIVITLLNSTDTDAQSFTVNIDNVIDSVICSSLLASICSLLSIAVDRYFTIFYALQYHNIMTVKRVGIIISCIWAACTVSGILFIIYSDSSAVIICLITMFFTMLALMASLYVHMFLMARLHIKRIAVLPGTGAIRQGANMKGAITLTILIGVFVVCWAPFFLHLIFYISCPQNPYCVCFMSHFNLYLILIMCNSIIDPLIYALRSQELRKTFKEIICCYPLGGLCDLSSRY
Sequence of Sodium-dependent dopamine transporter (Q01959 whole entry): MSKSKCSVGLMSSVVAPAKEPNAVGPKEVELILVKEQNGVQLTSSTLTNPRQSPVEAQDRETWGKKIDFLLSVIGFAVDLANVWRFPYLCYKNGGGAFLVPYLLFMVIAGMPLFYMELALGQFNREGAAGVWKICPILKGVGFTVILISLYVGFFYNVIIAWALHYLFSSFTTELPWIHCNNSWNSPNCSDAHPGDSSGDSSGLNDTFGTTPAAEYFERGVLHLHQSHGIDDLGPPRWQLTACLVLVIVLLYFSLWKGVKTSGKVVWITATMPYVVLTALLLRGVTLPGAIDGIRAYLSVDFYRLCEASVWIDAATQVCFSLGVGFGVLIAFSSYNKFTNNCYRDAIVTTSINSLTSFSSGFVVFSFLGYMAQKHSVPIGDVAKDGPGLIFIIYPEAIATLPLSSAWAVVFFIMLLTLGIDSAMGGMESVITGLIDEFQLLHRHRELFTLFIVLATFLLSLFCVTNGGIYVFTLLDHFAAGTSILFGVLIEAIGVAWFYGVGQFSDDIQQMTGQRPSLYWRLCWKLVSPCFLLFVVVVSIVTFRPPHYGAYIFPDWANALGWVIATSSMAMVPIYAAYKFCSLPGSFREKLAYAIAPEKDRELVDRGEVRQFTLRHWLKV

SMILES	AC50 [1] [µM]	AC50 (Histamine H3 receptor)	AC50 (Melanocortin receptor 4) [µM]	AC50 (Mu-type opioid receptor) [µM]	AC50 (B2 bradykinin receptor) [µM]	AC50 [2] [µM]	AC50 [3] [µM]	AC50 [4] [µM]	AC50 [5] [µM]	AC50 (Adenosine receptor A3) [µM]	AC50 [6] [µM]	AC50 (Estrogen receptor) [µM]	AC50 [7] [µM]
CCOC(=O)[C@H](CCc1ccccc1)N[C@@H](C)C(=O)N1CCC[C@H]1C(=O)O	> 30	> 10 µM	> 30	> 10	> 30	–	–	–	–	–	–	–	–
CC(C)Cc1ccc(CC(=O)O)cc1 [IBUFENAC]	> 30	> 30 µM	–	> 30	–	> 30	–	–	–	–	–	–	–
CC(C)NNC(=O)c1ccncc1 [IPRONIAZID]	> 30	> 30 µM	–	> 30	–	–	–	–	–	–	–	–	–
CO/N=C(\C(=O)N[C@@H]1C(=O)N2C(C(=O)[O-])=C(C[N+]3(C)CCCC3)CS[C@H]12)c1csc(N)n1	> 300	> 30 µM and 97 µM	–	> 300	> 30	> 300	–	–	–	–	–	–	–
CN(CCOc1ccc(NS(C)(=O)=O)cc1)CCc1ccc(NS(C)(=O)=O)cc1 [DOFETILIDE]	–	> 10 µM	> 30	> 30	> 30	> 10	> 30	> 30	> 30	> 30	6.73	> 30	> 30
O=C(COc1ccc(Cl)cc1)N1CCN(Cc2ccc3c(c2)OCO3)CC1 [FIPEXIDE]	–	–	–	–	–	–	> 30	> 30	29.2	> 30	> 30	> 30	12.9
CC(=O)Oc1c(C)cc(OCC(O)CNC(C)C)c(C)c1C (stereo unspecified) [METIPRANOLOL]	–	–	–	–	–	–	> 30	> 30	> 30	> 30	> 30	> 30	> 30
CN(C)C(=O)Oc1ccc[n+](C)c1 [PYRIDOSTIGMINE]	–	–	–	–	–	–	> 30	> 30	> 30	> 30	> 30	> 30	> 30
C(=N\NC1=NCCN1)/c1c2ccccc2c(/C=N/NC2=NCCN2)c2ccccc12 [BISANTRENE]	–	–	–	–	–	–	> 30	> 30	2.25	2.01	2.74	> 30	9.57
CCOC(=O)N[C@@H]1CC[C@@H]2[C@@H](C1)C[C@H]1C(=O)O[C@H](C)[C@H]1[C@H]2/C=C/c1ccc(-c2cccc(F)c2)cn1 [VORAPAXAR]	–	–	–	–	–	–	> 30	> 30	> 10	2.43	> 30	> 30	> 30

Second part, led by results:

AC50 [1] [µM]	AC50 (Histamine H3 receptor)	AC50 (Melanocortin receptor 4) [µM]	AC50 (Mu-type opioid receptor) [µM]	AC50 (B2 bradykinin receptor) [µM]	AC50 [2] [µM]	SMILES	AC50 [3] [µM]	AC50 [4] [µM]	AC50 [5] [µM]	AC50 (Adenosine receptor A3) [µM]	AC50 [6] [µM]	AC50 (Estrogen receptor) [µM]	AC50 [7] [µM]
> 30	> 10 µM	> 30	> 30	> 30	–	CCN(CC)CCNC(=O)c1cc(Cl)c(N)cc1OC [METOCLOPRAMIDE]	–	–	–	–	–	–	–
> 30	21 µM	–	> 30	–	17	CC(=O)c1ccc2c(c1)N(CCCN1CCN(CCO)CC1)c1ccccc1S2 [ACETOPHENAZINE]	–	–	–	–	–	–	–
> 30	> 10 µM	> 30	> 10	> 30	–	NC(N)=Nc1nc(CSCCC(N)=NS(N)(=O)=O)cs1 [FAMOTIDINE]	–	–	–	–	–	–	–
> 30	> 30 µM	–	> 30	–	–	CC[C@H](C)C(=O)O[C@H]1C[C@H](O)C=C2C=C[C@H](C)[C@H](CC[C@@H](O)C[C@@H](O)CC(=O)O)[C@H]21 [PRAVASTATIN]	–	–	–	–	–	–	–
> 30	> 30 µM	–	–	> 30	–	Cc1cccc(C)c1OCC(C)N (stereo unspecified) [MEXILETINE]	–	–	–	–	–	–	–
> 30	16 µM	–	23	–	3.5	CN1CCCC(n2nc(Cc3ccc(Cl)cc3)c3ccccc3c2=O)CC1 (stereo unspecified) [AZELASTINE]	–	–	–	–	–	–	–
> 30	> 30 µM	–	–	> 30	> 30	NC(=O)c1ncn([C@@H]2O[C@H](CO)[C@@H](O)[C@H]2O)c1O [MIZORIBINE]	–	–	–	–	–	–	–
> 30	> 30 µM	–	–	> 30	> 30	N[C@@H](C(=O)N[C@@H]1C(=O)N2C(C(=O)O)=C(Cl)CS[C@H]12)c1ccccc1 [CEFACLOR ANHYDROUS]	–	–	–	–	–	–	–
